From ChEMBL document CHEMBL5215006, “Antitumor Activity of Piceamycin by Upregulation of N-Myc Downstream-Regulated Gene 1 in Human Colorectal Cancer Cells” (J Nat Prod, 2022)
Active and inactive are the calls of the source. The calls are words filed in the database; no cut-off is given here.

Key:
[1] = tested on: HCT-116; assay: Cell cycle arrest in human HCT-116 cells assessed as accumulation at G0/G1 phase at 0.075 uM incubated for 24 hrs by RNaseA/propidium iodide staining based flow cytometry (reference value: 48.44 %); format: functional
[2] = tested on: HCT-116; assay: Cell cycle arrest in human HCT-116 cells assessed as accumulation at Sub-G1 phase at 0.15 uM incubated for 24 hrs by RNaseA/propidium iodide staining based flow cytometry (reference value: 3.66 %); format: functional
[3] = tested on: HCT-116; assay: Cell cycle arrest in human HCT-116 cells assessed as accumulation at S phase at 0.15 uM incubated for 24 hrs by RNaseA/propidium iodide staining based flow cytometry (reference value: 19.94 %); format: functional
[4] = tested on: SW480; assay: Cell cycle arrest in human SW480 cells assessed as accumulation at G0/G1 phase at 0.35 uM incubated for 24 hrs by RNaseA/propidium iodide staining based flow cytometry (reference value: 54.49 %); format: functional
[5] = tested on: SW480; assay: Cell cycle arrest in human SW480 cells assessed as accumulation at S phase at 0.35 uM incubated for 24 hrs by RNaseA/propidium iodide staining based flow cytometry (reference value: 16.7 %); format: functional
[6] = tested on: SW480; assay: Cell cycle arrest in human SW480 cells assessed as accumulation at G0/G1 phase at 0.7 uM incubated for 24 hrs by RNaseA/propidium iodide staining based flow cytometry (reference value: 54.49 %); format: functional
[7] = tested on: SW480; assay: Cell cycle arrest in human SW480 cells assessed as accumulation at G2/M phase at 0.7 uM incubated for 24 hrs by RNaseA/propidium iodide staining based flow cytometry (reference value: 24.74 %); format: functional
[8] = tested on: SW480; assay: Cell cycle arrest in human SW480 cells assessed as accumulation at S phase at 1.4 uM incubated for 24 hrs by RNaseA/propidium iodide staining based flow cytometry (reference value: 16.7 %); format: functional
[9] = tested on: HCT-116; assay: Cell cycle arrest in human HCT-116 cells assessed as downregulation of CDK4 protein expression at 0.075 to 0.3 uM incubated for 24 hrs by immunoblotting assay; format: functional, cell-based; conditions: dose 0.075-0.3 µM
[10] = tested on: SW480; assay: Cell cycle arrest in human SW480 cells assessed as downregulation of CDK4 protein expression at 0.35 to 1.4 uM incubated for 24 hrs by immunoblotting assay; format: functional, cell-based; conditions: dose 0.35-1.4 µM
[11] = tested on: HCT-116; assay: Cell cycle arrest in human HCT-116 cells assessed as accumulation at G0/G1 phase at 0.3 uM incubated upto 48 hrs by RNaseA/propidium iodide staining based flow cytometry; format: functional
[12] = tested on: SW480; assay: Induction of apoptosis in human SW480 cells assessed as downregulation of survivin expression at 1.4 uM measured at 12 to 48 hrs by immunoblotting assay; format: functional, cell-based; conditions: time 12-48 hrs, TDE = time-dependent effect
[13] = tested on: HCT-116; assay: Induction of apoptosis in human HCT-116 cells assessed as viable cells at 0.15 uM incubated for 48 hrs by Annexin V-FITC/PI staining based flow cytometry analysis (Rvb= 94.18%); format: functional; conditions: read-out: Activity
[14] = tested on: HCT-116; assay: Induction of apoptosis in human HCT-116 cells assessed as necrotic cells at 0.15 uM incubated for 48 hrs by Annexin V-FITC/PI staining based flow cytometry analysis (Rvb= 0.13%); format: functional
[15] = tested on: HCT-116; assay: Induction of apoptosis in human HCT-116 cells assessed as viable cells at 0.3 uM incubated for 48 hrs by Annexin V-FITC/PI staining based flow cytometry analysis (Rvb= 94.18%); format: functional; conditions: read-out: Activity
[16] = tested on: HCT-116; assay: Induction of apoptosis in human HCT-116 cells assessed as early apoptotic cells at 0.3 uM incubated for 48 hrs by Annexin V-FITC/PI staining based flow cytometry analysis (Rvb= 2.51%); format: functional
[17] = tested on: HCT-116; assay: Induction of apoptosis in human HCT-116 cells assessed as late apoptotic cells at 0.3 uM incubated for 48 hrs by Annexin V-FITC/PI staining based flow cytometry analysis (Rvb= 3.18%); format: functional
[18] = tested on: SW480; assay: Induction of apoptosis in human SW480 cells assessed as viable cells at 0.35 uM incubated for 48 hrs by Annexin V-FITC/PI staining based flow cytometry analysis (Rvb= 92.6%); format: functional; conditions: read-out: Activity
[19] = tested on: HCT-116; assay: Upregulation of cyclin-D1 protein expression in human HCT-116 cells with NDRG1 knockdown at 0.3 uM incubated for 24 hrs by immunoblotting assay; format: functional, cell-based
[20] = tested on: SW480; assay: Induction of apoptosis in human SW480 cells assessed as viable cells at 1.4 uM incubated for 48 hrs by Annexin V-FITC/PI staining based flow cytometry analysis (Rvb= 92.6%); format: functional; conditions: read-out: Activity
[21] = tested on: SW480; assay: Induction of apoptosis in human SW480 cells assessed as early apoptotic cells at 1.4 uM incubated for 48 hrs by Annexin V-FITC/PI staining based flow cytometry analysis (Rvb= 2.07%); format: functional
[22] = tested on: HCT-116; assay: Induction of apoptosis in human HCT-116 cells assessed as upregulation of cleaved caspase-9 expression at 0.3 uM measured after 48 hrs by immunoblotting assay; format: functional, cell-based
[23] = tested on: SW480; assay: Induction of apoptosis in human SW480 cells assessed as upregulation of cleaved caspase-9 expression at 1.4 uM measured after 48 hrs by immunoblotting assay; format: functional, cell-based
[24] = tested on: HCT-116; assay: Anti-migratory activity against human HCT-116 cells assessed as downregulation of Snail protein expression at 0.075 to 0.3 uM incubated for 24 hrs by immunoblotting assay; format: functional, cell-based; conditions: dose 0.075-0.3 µM
[25] = tested on: HCT-116; assay: Anti-migratory activity against human HCT-116 cells assessed as upregulation of E-cadherin gene expression at 0.075 to 0.3 uM incubated for 24 hrs by RT-PCR assay; format: functional, cell-based; conditions: dose 0.075-0.3 µM
[26] = tested on: HCT-116; assay: Antimigratory activity against highly liver metastatic human HCT-116 cells assessed as downregulation of N-cadherin protein expression at 0.075 to 0.3 uM incubated for 24 hrs by immunoblotting assay; format: functional, cell-based; conditions: dose 0.075-0.3 µM
[27] = tested on: HCT-116; assay: Antimigratory activity against highly liver metastatic human HCT-116 cells assessed as upregulation of NDRG1 gene expression at 0.075 to 0.3 uM incubated for 24 hrs by RT-PCR method; format: functional, cell-based; conditions: dose 0.075-0.3 µM
[28] = tested on: HCT-116; assay: Antimigratory activity against highly liver metastatic human HCT-116 cells assessed as upregulation of E-cadherin gene expression at 0.075 to 0.3 uM incubated for 24 hrs by RT-PCR method; format: functional, cell-based; conditions: dose 0.075-0.3 µM
[29] = tested on: HCT-116; assay: Antimigratory activity against highly liver metastatic human HCT-116 cells assessed as downregulation of N-cadherin gene expression at 0.075 to 0.3 uM incubated for 24 hrs by RT-PCR method; format: functional, cell-based; conditions: dose 0.075-0.3 µM
[30] = tested on: HCT-116; assay: Downregulation of c-Myc protein expression in human HCT-116 cells at 0.3 uM incubated for 24 hrs by immunoblotting assay; format: functional, cell-based
[31] = tested on: HCT-116; assay: Antitumor activity against human HCT-116 cells xenografted Balb/c mouse assessed as reduction in tumor growth at 3 mg/kg,ip administrated for 18 days by 3 times per week; format: functional; parameters: scale not given: the % may be the effect or the level left; conditions: time 18 day
[32] = tested on: HCT-116; assay: Antitumor activity against human HCT-116 cells xenografted Balb/c mouse assessed as decrease in Ki67 protein expression at 1 mg/kg,ip administrated for 18 days by 3 times per week by immunoblotting assay; format: functional, organism-based; conditions: time 18.0 day
[33] = tested on: HCT-116; assay: Antitumor activity against human HCT-116 cells xenografted Balb/c mouse assessed as decrease in Ki67 protein expression at 3 mg/kg,ip administrated for 18 days by 3 times per week by immunoblotting assay; format: functional, organism-based; conditions: time 18.0 day

`C[C@@H]1\C=C/C=C/C=C\C=C\C=C\C(=O)C2=C(O)C(=O)C[C@@]2(C)/C=C/C=C\C=C/C(=O)NC1` showed an Activity [1] of 48.48%, an Activity [2] of 5.1% and an Activity [3] of 11.41%. It also gave an Activity [4] of 54.89%, an Activity [5] of 15.86% and an Activity [6] of 62.43%. The Activity [7] was 17.02%, the Activity [8] was 11.23% and the Activity [9] was “Active”. The Activity [10] was “Active”, the Activity [11] was “Active” and the Activity [12] was “Tde”. For the same compound, the viability at 0.15 µM [13] was 74.9%, the Activity [14] was 0.18% and the viability at 0.3 µM [15] was 40.1%. It also gave an Activity [16] of 44.79%, an Activity [17] of 14.94% and a viability at 0.35 µM [18] of 93%. The Activity [19] was “Active”, the viability at 1.4 µM [20] was 31% and the Activity [21] was 24.26%. The Activity [22] was “Active”, the Activity [23] was “Active” and the Activity [24] was “Active”. The Activity [25] was “Active”, the Activity [26] was “Active” and the Activity [27] was “Active”. The Activity [28] was “Active”, the Activity [29] was “Active” and the Activity [30] was “Active”. For the same compound, the Activity [31] was 89%, the Activity [32] was “Active” and the Activity [33] was “Active”.
